Data taken from patent US20250213597A1, “AGENT FOR INDUCING PROLIFERATION OR DIFFERENTIATION OF CHONDROCYTE” (TOHOKU UNIVERSITY, priority 2022, published 2025).

System: ATDC5 cells
Test: Proliferation test of ATDC5 cells
Format: cell-based
Method: ATDC5 cells were cultured at a cell density of 5×10^5 cells/35 mm dish. As the culture solution, DMEM-Ham's F12 medium containing 5% FBS and 1% Pen/Strep was used. Adjustment was conducted to final concentrations of MPMBP of 10 μM (M10) and 100 μM (M100), clodronate of 10 μM (C10) and 100 μM (C100), zoledronate of 10 μM (Z10) and 100 μM (Z100) and a control (Vehicle), and the cells were cultured under the conditions of 5% CO2 at 37° C. The medium was changed every three days.

SMILES | number of cells (third day of culture, 10 μM) | number of cells (third day of culture, 100 μM) | number of cells (sixth day of culture, 10 μM) | number of cells (sixth day of culture, 100 μM)
O=P(O)(O)C(Cl)(Cl)P(=O)(O)O [clodronate] | increased | increased | – | –
O=P(O)(O)C(O)(Cn1ccnc1)P(=O)(O)O [zoledronate] | decreased | decreased | decreased significantly | decreased significantly
